Where only a bound is given, the exact number is not on record here.

The target of data set [1] is Cathepsin B (Homo sapiens (Human), UniProt P07858). As to the kind of experiment: Cathepsin B inhibition assay. It counts as biochemical. To be noted: Table 4; read-out: IC50 (nM) CatB.
For data set [2], the target named is Cathepsin S (Homo sapiens (Human), UniProt P25774). As to the kind of experiment: Cathepsin S inhibition assay. In kind it is biochemical. To be noted: Table 4; read-out: IC50 (nM) CatS.
Data set [3] deals with Cathepsin K (Homo sapiens (Human), UniProt P43235). As to the kind of experiment: Cathepsin K inhibition assay. In kind it is biochemical. To be noted: Table 4; read-out: IC50 (nM) CatK.
In data set [4] the target is Cathepsin L (Homo sapiens (Human), UniProt P07711). The data set is described as follows: Cathepsin L inhibition assay. It counts as biochemical. To be noted: Table 4; read-out: IC50 (nM) CatL.
Data set [5] addresses cathepsin F (Homo sapiens (Human), UniProt Q9UBX1). As to the kind of experiment: Cathepsin F inhibition assay. In kind it is biochemical. To be noted: Table 4; read-out: IC50 (nM) CatF. As to the method: (§1) The capacities of compounds of the present invention to inhibit the activity of cathepsins B, H, K, L, and S were measured in similar assays. Boc-Leu-Arg-Arg-AMC (20 μM) in sodium acetate buffer (50 mM, pH 5.5) containing DTT (1 mM) and EDTA (2 mM) was used for the Cathepsin B assay. L-Arg-AMC (20 μM) in sodium acetate buffer (50 mM, pH 5.5) containing DTT (1 mM) and EDTA (2 mM) was used for the Cathepsin H assay. Z-Phe-Arg-AMC (10 μM) in HEPES buffer (50 mM, pH 7.4) containing DTT (2.5 mM) and EDTA (1 mM) was used for the Cathepsin K assay. Z-Phe-Arg-AMC (20 μM) in sodium acetate buffer (50 mM, pH 5.5) containing DTT (1 mM) and EDTA (2 mM) was used for the Cathepsin L assay. Z-Leu-Arg-AMC (10 μM) in sodium acetate buffer (25 mM, pH 4.5) containing DTT (2.5 mM) and NaCl (50 mM) was used for the Cathepsin S assay. The capacities of the compounds to inhibit the activity of cathepsins F, V, and Z were also measured.
(§2) Further assays to measure the inhibitory activity of compounds of the present invention against Kgp and cathepsins B, H, K, L, and S were conducted as described in Example 66. The capacities of the compounds to inhibit the activity of cathepsins F, V, and Z were also measured.

Data set [6] deals with cathepsin V (Homo sapiens (Human), UniProt O60911). As to the kind of experiment: Cathepsin V inhibition assay. It counts as biochemical. To be noted: Table 4; read-out: IC50 (nM) CatV. How it is done: as §1, §2
In data set [7] the target is cathepsin Z (Homo sapiens (Human), UniProt Q9UBR2). The data set is described as follows: Cathepsin Z inhibition assay. In kind it is biochemical. To be noted: Table 4; read-out: IC50 (nM) CatZ. How it is done:
as §1, §2

Data set [8] in a line: Pharmacokinetics in male CD-1 mice dosed p.o. It counts as in vivo. To be noted: p.o. 10 mg/kg, compared to reference compound 73.
The test system of data set [9] is arginine gingipain, Rgp. As to the kind of experiment: Inhibition of arginine gingipain. In kind it is biochemical, Porphyromonas gingivalis. To be noted: 100 nM.
In data set [10] the test system is P. gingivalis W83. As to the kind of experiment: Mouse periodontitis model, P. gingivalis DNA in brain tissue (qPCR). In kind it is in vivo, BALB/C mice. To be noted: between week 5 and 10. As to the method:
At the beginning of the study, eight week old BALB/C female mice received antibiotic in drinking water (sulfamethoxazolum 0.87 mg/mL, trimethoprimum 0.17 mg/mL) for 10 days to reduce microbiome protection from experiment infection. Experimental periodontitis was induced by ligature placement followed by multiple exposures to P. gingivalis. During the ligature procedure mice were anesthetized with an intraperitoneal injection of ketamine (200 mg/kg) and xylazine (10 mg/kg), and eyes were lubricated with ointment (Puralube Vet; Pharmaderm, Melville, N.Y.). Next, a 5-0 silk ligature (Roboz Surgical Instrument Co.) was tied around the upper maxillary left and right second molar. Sutures were applied and tied gently to prevent damage to the periodontal tissue.
Mice (n=8-10/arm) were infected for 6 weeks every other day. For infection, […]. of bacteria solution were applied topically to the buccal surface of the maxillae. For preparation of the bacteria, P. gingivalis W83 (ATCC, Rockville, Md.) was streaked on Tryptic Soy Broth (TSB) agar plates (5% sheep blood, supplemented with 0.5 mg/mL L-cysteine, 5 μg/mL hemin, and 0.5 μg/mL vitamin K) and grown under anaerobic conditions at 37° C. for 5-7 days. Samples were then inoculated in TSB with hemin, vitamin K and L-cysteine (TSB-HKC) until mid-log phase (OD600=0.5-0.7). Bacteria were washed in PBS and prepared at final concentration of 1×10^10 cells/mL in PBS+2% methylcellulose (CMC).
Vehicle-treated animals received PBS only. At 5 weeks, a subgroup of animals (n=16) were euthanized to gather baseline measurements before the start of treatment. After 10 weeks, mice were euthanized and the brain, serum, and maxillary tissues were harvested and frozen in liquid nitrogen.
DNA was extracted from brain tissue using the DNeasyBLOOD & TISSUE KIT (Qiagen, Germany) according to manufacturer's protocol. […] The number of copies of the P. gingivalis genome was calculated by matching Cq values with a standard curve prepared from serial dilutions of cultured P. gingivalis W83 (WT). […]
(In general: In qPCR the cycle at which signal appears reflects the starting amount.)

Data set [11] deals with P. gingivalis. As to the kind of experiment: Related studies: brain abeta42 and neuroinflammation. In kind it is in vivo.

cathepsin F, sequence (Q9UBX1 271-484): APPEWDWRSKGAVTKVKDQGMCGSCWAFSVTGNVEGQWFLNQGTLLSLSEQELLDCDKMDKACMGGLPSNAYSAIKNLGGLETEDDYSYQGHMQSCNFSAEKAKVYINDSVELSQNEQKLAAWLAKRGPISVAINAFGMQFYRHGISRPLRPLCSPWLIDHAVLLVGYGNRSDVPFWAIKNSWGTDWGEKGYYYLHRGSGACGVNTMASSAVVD
Cathepsin L, sequence (P07711 114-333, species assumed): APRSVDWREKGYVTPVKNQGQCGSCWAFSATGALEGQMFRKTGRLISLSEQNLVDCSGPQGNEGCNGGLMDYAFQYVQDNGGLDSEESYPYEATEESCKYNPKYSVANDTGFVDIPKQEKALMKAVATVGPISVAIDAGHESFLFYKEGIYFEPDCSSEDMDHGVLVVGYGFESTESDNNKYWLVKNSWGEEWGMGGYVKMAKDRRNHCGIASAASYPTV
Cathepsin K, sequence (P43235 115-329, species assumed): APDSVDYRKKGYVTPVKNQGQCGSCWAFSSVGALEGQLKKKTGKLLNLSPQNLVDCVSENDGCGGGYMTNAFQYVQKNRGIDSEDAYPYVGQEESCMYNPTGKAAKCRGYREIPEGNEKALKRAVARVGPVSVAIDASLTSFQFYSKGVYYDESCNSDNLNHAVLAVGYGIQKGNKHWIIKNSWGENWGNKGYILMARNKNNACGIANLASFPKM
cathepsin V, sequence (O60911 114-334): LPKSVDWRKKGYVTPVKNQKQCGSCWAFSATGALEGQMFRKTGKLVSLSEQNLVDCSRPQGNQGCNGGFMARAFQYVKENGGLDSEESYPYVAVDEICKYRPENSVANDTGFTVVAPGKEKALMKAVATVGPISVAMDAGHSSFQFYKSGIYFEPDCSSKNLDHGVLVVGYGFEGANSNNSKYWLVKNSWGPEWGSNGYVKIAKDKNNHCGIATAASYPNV
Cathepsin S, sequence (P25774 115-331, species assumed): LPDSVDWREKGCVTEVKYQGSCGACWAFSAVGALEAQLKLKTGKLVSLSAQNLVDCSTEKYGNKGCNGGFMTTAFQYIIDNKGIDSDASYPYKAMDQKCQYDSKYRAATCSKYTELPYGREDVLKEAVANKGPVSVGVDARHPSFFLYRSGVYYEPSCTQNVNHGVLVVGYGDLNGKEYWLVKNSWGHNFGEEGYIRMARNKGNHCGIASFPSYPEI
cathepsin Z, sequence (Q9UBR2 62-303): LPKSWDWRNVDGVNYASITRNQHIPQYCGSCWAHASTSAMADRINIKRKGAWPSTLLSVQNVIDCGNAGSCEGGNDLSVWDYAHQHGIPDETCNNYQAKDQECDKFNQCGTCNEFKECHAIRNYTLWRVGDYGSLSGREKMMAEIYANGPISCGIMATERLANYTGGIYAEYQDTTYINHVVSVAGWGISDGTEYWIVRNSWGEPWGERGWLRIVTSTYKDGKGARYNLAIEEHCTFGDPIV

In the case of `NCCCC[C@H](NC(=O)C1CCCC1)C(=O)COc1c(F)ccc(F)c1F` [Compound 1, (S)—N-(7-amino-2-oxo-1-(2,3,6-trifluorophenoxy)heptan-3-yl)cyclopentanecarboxamide], the IC50 in data set [1] is 380 nM; in [2] it was > 10000 nM; in data set [3] it was 117 nM; in [4] it was 4680 nM; in [5] it was 6100 nM; in [6] it was > 10000 nM. Further, in data set [7], the IC50 is > 10000 nM. The oral availability entry in data set [8] was “improved oral availability”. For the same molecule, the plasma concentrations result in data set [8] was “increased plasma concentrations”. Further, in [9], the “inhibition of arginine gingipain, Rgp” value is “does not inhibit”. Moreover, the figures for the “reduction in P. gingivalis DNA copy number in brain tissue” value in [10] (3 mg/kg), in [10] (10 mg/kg) and in data set [10] (30 mg/kg) were ~50%, ~50% and ~80%, respectively. In data set [11], the “induction of brain abeta42” value is recorded as “reduce induction”. Further, in [11], the neuroinflammation entry was “reduce induction”.

Usually IC50 stands for the concentration needed to halve the response being measured.

Source of the values: patent US10730826B2, “Ketone inhibitors of lysine gingipain” (CORTEXYME, INC., priority 2016, dated 2020).
